From patent publication US20110046107A1, “SULFONYL-SUBSTITUTED CARBAPENEM COMPOUNDS” (priority 2007, published 2011) come the findings set out here.

Values after ≈ are worked out from the molar mass of the structure shown. Where two headings read alike, the source gives them in different places.

Experiment in all cases: In vitro antibacterial activity, agar dilution method (clinical isolates)
What all share (format): cell-based
A general note: In agar dilution, organisms are placed on agar that contains the substance at set levels.

The subject of one assay is Citrobacter freundii. The following applies: clinically isolated strains, Gram-negative. The source says: (§1) Bacterial strains for test: All the bacterial strains are clinical isolates and purchased from public organizations. methicillin-sensitive staphylococcus aureus (MS SA), methicillin-resistant staphylococcus aureus (MRSA), methicillin-sensitive staphylococcus epidermidis (MSSE), methicillin-resistant staphylococcus epidermidis (MRSE), streptococcus pyogenes, penicillin-sensitive streptococcus pneumoniae (PSSP), penicillin-resistant streptococcus pneumoniae (PRSP), Escherichia coli, Citrobacter freundii, Enterobacter cloacae, Hemophilus influenza, Klebsiella pneumonia (producing ESBL), Morganella morganii, Proteus mirabilis, Serratia marcescens, and Pseudomonas aeruginosa.
(§2) Drugs to be tested: compounds of the invention prepared in the examples; the chemical names, structural formulae, preparation materials, and preparation methods are provided in the preparation examples of the compounds;
(§3) Meropenem (Meropenem for injection), Ertapenem (Ertapenem for injection), and Doripenem (Doripenem for injection) commercially available
(§4) Experimental method: the agar dilution method, by reference to Methodology of Pharmacological Experiment (XU Shuyun et al, published by the Peoples Medical Publishing House, 1st Edition, August, 1982; 3rd Edition, 5th printing, January 2002, p 1659-1660).

In the next assay the test system is Enterobacter cloacae. Particulars: read-out: MIC90 Enterobacter cloacae.
Excerpt: as §1, §2, §3, §4

In a further assay the test system is Escherichia coli. Particulars: clinically isolated strains, Gram-negative, read-out: MIC90 E. coli.
Excerpt: as §1, §2, §3, §4

For the next assay, the system named is Hemophilus influenza. Particulars: read-out: MIC90 Hemophilus influenza.
Excerpt: as §1, §2, §3, §4

Assay [1] deals with Klebsiella pneumonia (producing ESBL). Particulars: Klebsiella pneumoniae, read-out: MIC90 Klebsiella pneumonia.
Excerpt: as §1, §2, §3, §4

The next assay relates to Morganella morganii. The following applies: clinically isolated strains, Gram-negative.
Excerpt: as §1, §2, §3, §4

The next assay relates to Proteus mirabilis. The following applies: read-out: MIC90 Proteus mirabilis.
Excerpt: as §1, §2, §3, §4

The test system of the next assay is Pseudomonas aeruginosa. The following applies: clinically isolated strains, Gram-negative.
Excerpt: as §1, §2, §3, §4

For another assay, the system named is Serratia marcescens. Particulars: read-out: MIC90 Serratia marcescens.
Excerpt: as §1, §2, §3, §4

Assay [2] has as its system methicillin-resistant staphylococcus aureus (MRSA). The following applies: clinically isolated strains, Gram-positive, read-out: MIC90 S. aureus MRSA.
Excerpt: as §1, §2, §3, §4

Assay [3] deals with methicillin-resistant staphylococcus epidermidis (MRSE). The following applies: clinically isolated strains, Gram-positive, read-out: MIC90 S. epidermidis MRSE.
Excerpt: as §1, §2, §3, §4

Assay [4] concerns methicillin-sensitive staphylococcus aureus (MSSA). Particulars: read-out: MIC90 S. aureus MSSA.
Excerpt: as §1, §2, §3, §4

The subject of assay [5] is methicillin-sensitive staphylococcus epidermidis (MSSE). Particulars: read-out: MIC90 S. epidermidis MSSE.
Excerpt: as §1, §2, §3, §4

Assay [6] deals with penicillin-resistant streptococcus pneumoniae (PRSP). The following applies: clinically isolated strains, Gram-positive, read-out: MIC90 S. pneumoniae PRSP.
Excerpt: as §1, §2, §3, §4

The subject of assay [7] is penicillin-sensitive streptococcus pneumoniae (PSSP). Particulars: clinically isolated strains, Gram-positive, read-out: MIC90 S. pneumoniae PSSP.
Excerpt: as §1, §2, §3, §4

The test system of another assay is streptococcus pyogenes. Particulars: clinically isolated strains, Gram-positive, read-out: MIC90 S. pyogenes.
Excerpt: as §1, §2, §3, §4

Where [8] appears, read: clinically isolated strains, Gram-negative, agar dilution.
[9] abbreviates: clinically isolated strains, Gram-positive, agar dilution.
Setting [10] is: clinically isolated strains (producing ESBL), Gram-negative, agar dilution.

In the case of `C[C@@H](O)[C@H]1C(=O)N2C(C(=O)O)=C(S[C@H]3CCN(S(N)(=O)=O)C3)[C@H](C)[C@H]12` [Compound 2, (4R,5S,6S)-3-[(3S)-N-aminosulfonyl-pyrrolidin-3-yl]thio-6-[(1R)-1-hydroxyethyl]-4-methyl-7-oxo-1-aza-bicyclo-[3.2.0]hept-2-ene-2-carboxylic acid], the MIC90 came to 0.032 µg/mL (≈ 0.0817 µM) in the assay on Citrobacter freundii; 0.125 µg/mL (≈ 0.319 µM) with Enterobacter cloacae; 0.016 µg/mL (≈ 0.0409 µM) in the assay on Escherichia coli; 0.125 µg/mL (≈ 0.319 µM) in the assay on Hemophilus influenza; 0.125 µg/mL (≈ 0.319 µM) in [1]; 0.063 µg/mL (≈ 0.161 µM) against Morganella morganii. Also, the MIC90 with Proteus mirabilis (setting [8]) was found to be 0.63 µg/mL (≈ 1.61 µM); with Pseudomonas aeruginosa it was 8 µg/mL (≈ 20.4 µM); with Serratia marcescens, 0.125 µg/mL (≈ 0.319 µM); in assay [2] it was 16 µg/mL (≈ 40.9 µM); in assay [3] it was 8 µg/mL (≈ 20.4 µM); in [4] (setting [9]), 0.063 µg/mL (≈ 0.161 µM). In addition, the MIC90 in assay [5] (setting [9]) came to 0.063 µg/mL (≈ 0.161 µM); in assay [6] it was 0.5 µg/mL (≈ 1.28 µM); in [7], 0.016 µg/mL (≈ 0.0409 µM); with streptococcus pyogenes it was 0.008 µg/mL (≈ 0.0204 µM).

In the case of `C[C@@H](O)[C@H]1C(=O)N2C(C(=O)O)=C(SC3CCCN(S(N)(=O)=O)C3)[C@H](C)[C@H]12` (stereo partly drawn) [Compound 3, (4R,5S,6S)-3-[N-aminosulfonyl-piperidin-3-yl]thio-6-[(1R)-1-hydroxyethyl]-4-methyl-7-oxo-1-aza-bicyclo-[3.2.0]hept-2-ene-2-carboxylic acid], the MIC90 was 0.063 µg/mL (≈ 0.155 µM) against Citrobacter freundii; 0.125 µg/mL (≈ 0.308 µM) in the assay on Enterobacter cloacae (setting [8]); 0.032 µg/mL (≈ 0.0789 µM) in the assay with Escherichia coli; 0.25 µg/mL (≈ 0.617 µM) in the assay on Hemophilus influenza (setting [8]); 0.063 µg/mL (≈ 0.155 µM) in assay [1] (setting [10]); 0.032 µg/mL (≈ 0.0789 µM) against Morganella morganii. Also, the MIC90 in the assay on Proteus mirabilis (setting [8]) turned out to be 0.125 µg/mL (≈ 0.308 µM); against Pseudomonas aeruginosa, 16 µg/mL (≈ 39.5 µM); in the assay on Serratia marcescens (setting [8]), 0.125 µg/mL (≈ 0.308 µM); in [2], 16 µg/mL (≈ 39.5 µM); in assay [3], 8 µg/mL (≈ 19.7 µM); in [4] (setting [9]), 0.125 µg/mL (≈ 0.308 µM). Besides, the MIC90 is 0.125 µg/mL (≈ 0.308 µM) in [5] (setting [9]), 0.5 µg/mL (≈ 1.23 µM) in assay [6], 0.016 µg/mL (≈ 0.0395 µM) in assay [7] and 0.008 µg/mL (≈ 0.0197 µM) in the assay on streptococcus pyogenes.

For `C[C@@H](O)[C@H]1C(=O)N2C(C(=O)O)=C(SC3CN=CN(S(N)(=O)=O)C3)[C@H](C)[C@H]12` (stereo partly drawn) [Compound 4, (4R,5S,6S)-3-[1(4H)-aminosulfonyl-5,6-dihydropyrimidin-5-yl]-thio-6-[(1R)-1-hydroxyethyl]-4-methyl-7-oxo-1-aza-bicyclo-[3.2.0]hept-2-ene-2-carboxylic acid], the MIC90 amounted to 0.032 µg/mL (≈ 0.0791 µM) with Citrobacter freundii; 0.125 µg/mL (≈ 0.309 µM) in the assay on Enterobacter cloacae; 0.032 µg/mL (≈ 0.0791 µM) in the assay on Escherichia coli; 0.125 µg/mL (≈ 0.309 µM) in the assay with Hemophilus influenza (setting [8]); 0.063 µg/mL (≈ 0.156 µM) in [1] (setting [10]); 0.063 µg/mL (≈ 0.156 µM) with Morganella morganii. Moreover, the MIC90 in the assay on Proteus mirabilis is 0.125 µg/mL (≈ 0.309 µM); in the assay on Pseudomonas aeruginosa it was 32 µg/mL (≈ 79.1 µM); in the assay on Serratia marcescens it was 0.125 µg/mL (≈ 0.309 µM); in [2], 8 µg/mL (≈ 19.8 µM); in [3] it was 16 µg/mL (≈ 39.6 µM); in assay [4], 0.125 µg/mL (≈ 0.309 µM). The MIC90 in assay [5] (setting [9]) was determined as 0.063 µg/mL (≈ 0.156 µM); in assay [6] it was 1 µg/mL (≈ 2.47 µM); in assay [7], 0.016 µg/mL (≈ 0.0396 µM); in the assay on streptococcus pyogenes, 0.016 µg/mL (≈ 0.0396 µM).

Turning to `C[C@@H](O)[C@H]1C(=O)N2C(C(=O)O)=C(SC3CNCN(S(N)(=O)=O)C3)[C@H](C)[C@H]12` (stereo partly drawn) [Compound 5, (4R,5S,6S)-3-[1(2H)-aminosulfonyl-tetrahydropyrimidin-5-yl]-thio-6-[(1R)-1-hydroxyethyl]-4-methyl-7-oxo-1-aza-bicyclo-[3.2.0]hept-2-ene-2-carboxylic acid], the MIC90 against Citrobacter freundii amounted to 0.032 µg/mL (≈ 0.0787 µM); in the assay on Enterobacter cloacae (setting [8]), 0.25 µg/mL (≈ 0.615 µM); with Escherichia coli, 0.032 µg/mL (≈ 0.0787 µM); in the assay on Hemophilus influenza (setting [8]), 0.125 µg/mL (≈ 0.308 µM); in assay [1] it was 0.125 µg/mL (≈ 0.308 µM); with Morganella morganii, 0.063 µg/mL (≈ 0.155 µM). Moreover, the MIC90 in the assay on Proteus mirabilis (setting [8]) is 0.063 µg/mL (≈ 0.155 µM); in the assay on Pseudomonas aeruginosa it was 16 µg/mL (≈ 39.4 µM); in the assay with Serratia marcescens (setting [8]) it was 0.063 µg/mL (≈ 0.155 µM); in assay [2], 16 µg/mL (≈ 39.4 µM); in assay [3], 16 µg/mL (≈ 39.4 µM); in assay [4] (setting [9]), 0.25 µg/mL (≈ 0.615 µM). For the same compound, the MIC90 was found to be 0.125 µg/mL (≈ 0.308 µM) in assay [5], 1 µg/mL (≈ 2.46 µM) in assay [6], 0.016 µg/mL (≈ 0.0394 µM) in assay [7] and 0.016 µg/mL (≈ 0.0394 µM) in the assay with streptococcus pyogenes.
